Patent publication US12492173B2, “Herbicidal substituted N-tetrazolyl aryl carboxamides” (Bayer Aktiengesellschaft, priority 2019, dated 2025)

What was measured:
Format in all cases: in vivo
[1] = test system: Amaranthus retroflexus; test: Pre-emergence herbicidal action, AMARE; design: key to Herbicidal action against AMARE: % activity: 100 = plants have died, 0 = like control plants; conditions: for herbicidal action AMARE / herbicidal activity AMARE: dosage 320 g/ha; for Herbicidal action against AMARE: comparative experiment; for herbicidal activity AMARE: scored visually after 3 weeks vs untreated controls (100% = plants have died)
Outline: (§1)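 Weed seeds sown in sandy loam and covered; WP or EC formulations applied to soil surface as aqueous suspension or emulsion at 600 to 800 l/ha with 0.2% wetting agent. Greenhouse-grown, with damage scored visually after 3 weeks versus untreated controls (0% = like control, 100% = plants dead).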

[2] = test system: Matricaria inodora; test: Post-emergence herbicidal action, MATIN; design: key: % herbicidal action vs untreated; 100 = plants died, 0 = like control
Outline: (§2)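 Foliar application at the one-leaf stage of greenhouse-grown plants in sandy loam; compound applied as WP or EC in 600–800 l/ha water containing 0.2% wetting agent. Scores are visual percentages (0% like control, 100% plants died) taken after roughly 3 weeks.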

[3] = test system: Pharbitis purpurea; test: Pre-emergence herbicidal action, PHBPU; conditions: dosage 320 g/ha, scored visually after 3 weeks vs untreated controls (100% = plants have died)
Outline: as §1

[4] = test system: Setaria viridis; test: Pre-emergence herbicidal action, SETVI; design: key to Herbicidal action against SETVI: % activity: 100 = plants have died, 0 = like control plants; conditions: for Herbicidal action against SETVI: comparative experiment; for herbicidal activity SETVI / herbicidal action SETVI: dosage 320 g/ha; for herbicidal activity SETVI: scored visually after 3 weeks vs untreated controls (100% = plants have died)
Outline: as §1

[5] = test system: Avena fatua; test: Post-emergence herbicidal action, AVEFA; design: key: % herbicidal action vs untreated; 100 = plants died, 0 = like control
Outline: as §2

[6] = test system: Polygonum convolvulus; test: Post-emergence herbicidal action, POLCO; conditions: for Herbicidal action against POLCO: comparative experiment
Outline: as §2

[7] = comparative experiment, post-emergence, 20 g of a.i./ha
[8] = post-emergence, 20 g of a.i./ha

Compound | herbicidal action AMARE [1] [%] | herbicidal action MATIN ([2]; Dosage 80 g/ha) | herbicidal activity AMARE [1] [%] | herbicidal activity SETVI [4] [%] | herbicidal action SETVI [4] [%] | herbicidal action POLCO ([6]; Dosage 80 g/ha) | herbicidal action AVEFA ([5]; Dosage 80 g/ha) | also measured
Cc1ccc(C(=O)Nc2nnnn2C)c(Cl)c1C[S+](C)[O-] (racemic) [Example 1-288] | 100 | 100 | – | – | – | – | – | –
Cn1nnnc1NC(=O)c1ccc(I)c(C[S+](C)[O-])c1Cl (racemic) [Example 1-363] | – | – | 100 | 100 | – | – | – | Herbicidal action against AMARE ([1]; 20 g of a.i./ha): 100; herbicidal activity PHBPU [3]: 100%; Herbicidal action against SETVI ([4]; 20 g of a.i./ha): 90; herbicidal action AVEFA ([5]; post-emergence, dosage 80 g/ha): 100%; herbicidal action MATIN ([2]; post-emergence, dosage 80 g/ha): 100%
Cc1c(C(=O)Nc2nnnn2C)ccc(C(F)F)c1C[S+](C)[O-] (centres unmarked) [Example 1-108] | 100 | 100 | – | – | 100 | – | – | –
COc1c(C(=O)Nc2nnnn2C)ccc(C(F)(F)F)c1C[S+](C)[O-] (centres unmarked) [Example 1-135] | 100 | 100 | – | – | – | – | – | –
CSc1c(C(=O)Nc2nnnn2C)ccc(C(F)F)c1C[S+](C)[O-] (centres unmarked) [Example 1-171] | – | 90 | 100 | 100 | – | 100 | – | herbicidal activity PHBPU [3]: 90%
CCSCc1c(C(F)(F)F)ccc(C(=O)Nc2nnnn2C)c1SCC [Example 1-182] | – | 90 | 100 | 100 | – | – | 80 | Herbicidal action against AMARE ([1]; 20 g of a.i./ha): 70; herbicidal activity PHBPU [3]: 80%
CSCc1c(C)ccc(C(=O)Nc2nnnn2C)c1Cl [Example 1-287] | 90 | 100 | – | – | 90 | – | 80 | –
Cn1nnnc1NC(=O)c1ccc(C(F)(F)F)c(CSCC(F)(F)F)c1Cl [Example 1-311] | – | 100 | 100 | 100 | – | – | 100 | herbicidal activity PHBPU [3]: 100%
Cn1nnnc1NC(=O)c1ccc(I)c(CS(C)(=O)=O)c1Cl [Example 1-364] | – | 100 | 100 | 100 | – | 100 | – | Herbicidal action against AMARE ([1]; 20 g of a.i./ha): 100; herbicidal activity PHBPU [3]: 90%; Herbicidal action against SETVI ([4]; 20 g of a.i./ha): 100
CCS(=O)(=O)Cc1c(C(F)(F)F)ccc(C(=O)Nc2nnnn2C)c1Br [Example 1-385] | – | – | 100 | 100 | – | – | – | Herbicidal action against AMARE ([1]; 80 g of a.i./ha): 100; Herbicidal action against SETVI ([4]; 80 g of a.i./ha): 90; Herbicidal action against AVEFA [5, 7]: 80; herbicidal action AVEFA ([5]; post-emergence, dosage 80 g/ha): 100%; Herbicidal action against MATIN [2, 7]: 90; herbicidal action MATIN ([2]; post-emergence, dosage 80 g/ha): 90%; Herbicidal action against POLCO [6, 8]: 70; herbicidal action POLCO ([6]; post-emergence, dosage 80 g/ha): 90%
CSCc1c(Cl)ccc(C(=O)Nc2nnnn2C)c1Cl [Example 1-559] | 100 | – | – | – | 80 | – | – | herbicidal action AVEFA ([5]; post-emergence, dosage 80 g/ha): 100%; herbicidal action MATIN ([2]; post-emergence, dosage 80 g/ha): 100%
COc1c(C(=O)Nc2nnnn2C)ccc(Cl)c1CSC [Example 1-570] | 100 | – | – | – | – | – | – | Herbicidal action against MATIN ([2]; post-emergence, dosage 80 g/ha): 90; Herbicidal action against POLCO ([6]; post-emergence, 5 g of a.i./ha): 30
CCSCc1c(C(F)(F)F)ccc(C(=O)Nc2nnnn2CC)c1C [Example 2-86] | 100 | – | – | – | 100 | – | – | herbicidal action AVEFA ([5]; post-emergence, dosage 80 g/ha): 100%; herbicidal action MATIN ([2]; post-emergence, dosage 80 g/ha): 100%; herbicidal action POLCO ([6]; post-emergence, dosage 80 g/ha): 100%
CCn1nnnc1NC(=O)c1ccc(C(F)(F)F)c(CS(=O)(=O)CC)c1C [Example 2-88] | 100 | 90 | – | – | 100 | – | 90 | –
CCn1nnnc1NC(=O)c1ccc(C(F)F)c(C[S+](C)[O-])c1C (centres unmarked) [Example 2-108] | 100 | 100 | – | – | 100 | – | – | –
CCn1nnnc1NC(=O)c1ccc(C(F)F)c(CSC)c1SC [Example 2-170] | – | 100 | 100 | 100 | – | 90 | – | –
CCn1nnnc1NC(=O)c1ccc(C(F)F)c(C[S+](C)[O-])c1SC (centres unmarked) [Example 2-171] | – | 100 | 100 | 100 | – | 90 | – | herbicidal activity PHBPU [3]: 90%
CCn1nnnc1NC(=O)c1ccc(S(C)(=O)=O)c(CS(C)(=O)=O)c1Cl [Example 2-280] | 100 | – | – | – | 90 | – | – | Herbicidal action against AVEFA ([5]; post-emergence, dosage 80 g/ha): 90

Compound | herbicidal action AMARE [1] [%] | herbicidal action MATIN ([2]; Dosage 80 g/ha) | herbicidal activity AMARE [1] [%] | herbicidal activity SETVI [4] [%] | herbicidal action SETVI [4] [%] | herbicidal action POLCO ([6]; Dosage 80 g/ha) | herbicidal action AVEFA ([5]; Dosage 80 g/ha) | also measured
CCn1nnnc1NC(=O)c1ccc(C(F)(F)F)c(CS(=O)(=O)CC)c1Cl [Example 2-301] | 100 | 90 | – | – | 100 | 90 | 90 | –
CCn1nnnc1NC(=O)c1ccc(C(F)(F)F)c(CSCC(F)(F)F)c1Cl [Example 2-311] | – | 100 | 100 | 100 | – | 90 | 90 | –
CCn1nnnc1NC(=O)c1ccc(Cl)c(CSC)c1Cl [Example 2-559] | 100 | 100 | – | – | 90 | 80 | 100 | –
CCCn1nnnc1NC(=O)c1ccc(S(C)(=O)=O)c(CSC)c1C [Example 3-37] | 100 | 90 | – | – | – | – | 80 | –
CCCn1nnnc1NC(=O)c1ccc(S(C)(=O)=O)c(CS(C)(=O)=O)c1C [Example 3-39] | 100 | 80 | – | – | 80 | – | 80 | –
CCCn1nnnc1NC(=O)c1ccc(C(F)(F)F)c(CSCC)c1C [Example 3-86] | 100 | 90 | – | – | 90 | 80 | 80 | –
CCCn1nnnc1NC(=O)c1ccc(C(F)(F)F)c(C[S+](C)[O-])c1OC (centres unmarked) [Example 3-135] | 100 | 100 | – | – | 100 | 100 | 100 | –
CCCn1nnnc1NC(=O)c1ccc(C(F)(F)F)c(CSC)c1SC [Example 3-161] | 100 | 90 | – | – | 90 | 80 | 90 | –
CCCn1nnnc1NC(=O)c1ccc(C(F)F)c(C[S+](C)[O-])c1SC (centres unmarked) [Example 3-171] | – | 90 | 100 | 100 | – | 90 | – | herbicidal activity PHBPU [3]: 90%
CCCn1nnnc1NC(=O)c1ccc(C(F)F)c(CS(C)(=O)=O)c1SC [Example 3-172] | – | 90 | 100 | 100 | – | 80 | – | herbicidal activity PHBPU [3]: 80%
CCCn1nnnc1NC(=O)c1ccc(C(F)(F)F)c(CS(=O)(=O)CC)c1Cl [Example 3-301] | 100 | 100 | – | – | 100 | 100 | 90 | –
C=CCSCc1c(C(F)(F)F)ccc(C(=O)Nc2nnnn2CCC)c1Cl [Example 3-308] | – | 100 | 100 | 100 | – | – | 100 | herbicidal activity PHBPU [3]: 100%
CCCn1nnnc1NC(=O)c1ccc(C(F)(F)F)c(CSCC(F)(F)F)c1Cl [Example 3-311] | 100 | 100 | – | – | 100 | 80 | 100 | –
CCCn1nnnc1NC(=O)c1ccc(C(F)F)c(CS(=O)(=O)CC)c1Cl [Example 3-325] | – | – | 100 | 100 | – | – | 100 | herbicidal activity PHBPU [3]: 100%
CCCn1nnnc1NC(=O)c1ccc(I)c(C[S+](C)[O-])c1Cl (centres unmarked) [Example 3-363] | 100 | 100 | – | – | 100 | 90 | 80 | –
CCCn1nnnc1NC(=O)c1ccc(C(F)(F)F)c(CS(C)(=O)=O)c1Br [Example 3-382] | 100 | 90 | – | – | – | 80 | – | –
CCS(=O)(=O)c1c(C(F)(F)F)ccc(C(=O)Nc2nnnn2C)c1Br [Example V-13, 2-bromo-3-(ethylsulfonyl)-N-(1-methyl-1-1H-tetrazol-5-yl)-4-(trifluoromethyl)benzamide, reference compound] | – | – | – | – | – | – | – | Herbicidal action against AMARE ([1]; 80 g of a.i./ha): 0; Herbicidal action against SETVI ([4]; 80 g of a.i./ha): 0; Herbicidal action against AVEFA [5, 7]: 0; Herbicidal action against MATIN [2, 7]: 0; Herbicidal action against POLCO [6, 8]: 0
